Experimental data as given in US20060222628A1, “Gallium complexes of 3-hydroxy-4-pyrones to treat infection by intracellular prokaryotes and DNA viruses” (priority 1999, published 2006).

Tests used:
EBV and KSV = test: Clinical evaluation for prevention of EBV or KSV neoplasms in HIV patients: neoplasia; format: in vivo, human
Text: (§1) Both EBV and KSV cause neoplasms, with both causing lymphomas and KSV ([…]) along with HHV-7, possibly in concert with HHV-6 associated with the pathogenesis of Kaposi Sarcoma. Most humans carry all these viruses. A HIV population could be studied without determining whether any of the patients are seropositive or culturable for these pathogens, or preferably a group of HIV patients who are seropositive or culture positive for both EBV and KSV can be identified. Applying the methods of Example 12 with additional guidance from Schneider et al. (2000), supra, yields a protocol for evaluating the contribution of the gallium compounds of the invention in prevention of opportunistic neoplasms caused by the herpes viruses with combination antiviral therapy.
Using essentially the same protocol as Example 12, but with an HIV infected patient population that is seropositive or culture positive for both EBV and KSV and substituting the specific assays such as PCR, serodetection for the EBV and KSV viruses, the role of gallium as a combination agent in preventing the neoplasms caused by members of the herpesvirus family in HIV disease can be evaluated. The subpopulations are divided according to CD4 counts as in Example 12. Each subpopulation's first group is treated in addition to the foscarnet with interferon-alpha. Each subpopulation's second group is treated in addition to the ganciclovir with the same doses of foscarnet and interferon-alpha as the first group. The dosages of the foscarnet and are as in Example 12, as are the dosages for the gallium maltolate for each groups four subgroups. Thus within each subpopulation, gallium plus foscarnet plus traditional HAART is compared to gallium plus foscarnet plus traditional HAART plus ganciclovir. An all oral regimen would be preferable but success would be unlikely. The dosage level for the interferon-alpha used is that used for treating Kaposi Sarcoma (20 million IU every day by injection), a dose that may require adjustment for tolerance in some patients. […]

HIV = test: Clinical evaluation for prevention of EBV or KSV neoplasms in HIV patients: HIV; format: in vivo; conditions: neoplasm prevention study; MacSynergy II
Text: as §1
Using essentially the same protocol as Example 12, but with an HIV infected patient population that is seropositive or culture positive for both EBV and KSV and substituting the specific assays such as PCR, serodetection for the EBV and KSV viruses, the role of gallium as a combination agent in preventing the neoplasms caused by members of the herpesvirus family in HIV disease can be evaluated. The subpopulations are divided according to CD4 counts as in Example 12. Each subpopulation's first group is treated in addition to the foscarnet with interferon-alpha. […]

Herpes Simplex = test: Clinical evaluation for Herpes Simplex (I or II) infection and recurrences; format: in vivo, human
Method: Patients with Herpes Simplex infection are treated once per day with gelatin capsules containing gallium maltolate. The population of patients is divided into subpopulation with recurrent Herpes Simplex and acute Herpes Simplex infections respectively. These different subpopulations are divided randomly and blindly into two approximately equal groups with four approximately equal subgroups that receive either 0 (placebo), 250, 500, or 750 mg/day gallium maltolate for about six months. The first group of each subpopulation receive the gallium maltolate dose together with 200 mg acyclovir five times per day. The second group of each subpopulation receive the gallium maltolate dose together with 500 mg ganciclovir twice per day. Patients are medically monitored for resolution recurrences of latent Herpes Simplex infection, or medical symptoms of acute Herpes Simplex infection throughout the study, with the monitoring including in situ hybridization of skin lesions for HSV DNA. In addition for the acute Herpes Simplex infected group, blood serum samples are obtained from the patients at days 0, 3, 7, and 10 and are assayed for HSV particle by routine methods and for Herpes Simplex DNA (viral load assay) using PCR.

## Cc1occc(=O)c1[O-].Cc1occc(=O)c1[O-].Cc1occc(=O)c1[O-].[Ga+3] [gallium maltolate, tris(3-hydroxy-2-methyl-4H-pyran-4-onato)gallium]
EBV and KSV; HIV infected patients on HAART, with foscarnet, interferon-alpha, ganciclovir
  Efficacy in preventing herpesvirus neoplasia in combination: effective in combination with foscarnet, interferon and ganciclovir
EBV and KSV; combined with foscarnet, ganciclovir and interferon, high CD4+ group
  Prevention of opportunistic herpesvirus associated neoplasms: producing the best results
EBV and KSV; with foscarnet, interferon and ganciclovir
  Synergy in preventing herpesvirus neoplasia: synergistic with all
HIV
  Synergy with the HAART regime on HIV infection: synergistic with the HAART regime in their effects upon the HIV infection
Herpes Simplex; HIV negative patients, 250-750 mg/day oral with acyclovir or ganciclovir
  Efficacy in treating Herpes Simplex infection: effective for treating Herpes Simplex infection, including recurrent sores as well as more serious systemic disease
Herpes Simplex; Herpes Simplex
  Efficacy of combination with acyclovir or ganciclovir versus single agents: more effective than either agent alone
Herpes Simplex; Herpes Simplex, MacSynergy II
  Synergy with nucleoside analogs: synergy of gallium with both nucleoside analogs is also demonstrated
